From publication PMC7265341, “Quantifying CDK inhibitor selectivity in live cells” (Nature Communications, 2020)
Read-outs that look alike come from different tables or passages of the source.

Tests used:
[1] = biological target: CDK2/Cyclin E1 (Homo sapiens, UniProt P24941); experiment: NanoBRET live-cell target engagement, CDK2-NanoLuc/Cyclin E1 in HEK-293; format: binding; conditions: read-out: Inhibition at 10µM (%), CDK2/E1
[2] = biological target: CDK12/Cyclin K (Homo sapiens, UniProt Q9NYV4); experiment: NanoBRET live-cell target engagement, CDK12-NanoLuc/Cyclin K in HEK-293; format: binding; conditions: CDK12/K, read-out: Inhibition at 10µM (%)
[3] = biological target: CDK11B/Cyclin L2 (Homo sapiens, UniProt P21127); experiment: NanoBRET live-cell target engagement, CDK11B-NanoLuc/Cyclin L2 in HEK-293; format: binding; conditions: CDK11b/L2, read-out: Inhibition at 10µM (%)
[4] = biological target: CDK15/Cyclin Y (Homo sapiens, UniProt Q96Q40); experiment: NanoBRET live-cell target engagement, NanoLuc-CDK15/Cyclin Y in HEK-293; format: binding; conditions: CDK15/Y, read-out: Inhibition at 10µM (%)
[5] = biological target: CDK10/Cyclin L2 (Homo sapiens, UniProt Q15131); experiment: NanoBRET live-cell target engagement, CDK10-NanoLuc/Cyclin L2 in HEK-293; conditions: read-out: Inhibition at 10µM (%), CDK10/L2
[6] = biological target: CDK9/Cyclin K (Homo sapiens, UniProt P50750); experiment: NanoBRET live-cell target engagement, NanoLuc-CDK9/Cyclin K in HEK-293; format: binding; conditions: CDK9/K, read-out: Inhibition at 10µM (%)
[7] = biological target: CDK20/Cyclin H (Homo sapiens, UniProt Q8IZL9); experiment: NanoBRET live-cell target engagement, NanoLuc-CDK20/Cyclin H in HEK-293; format: binding; conditions: CDK20/H, read-out: Inhibition at 10µM (%)
[8] = biological target: T1, CDK11A/Cyclin L2 (Homo sapiens, UniProt Q9UQ88); experiment: NanoBRET live-cell target engagement, CDK11A-NanoLuc/Cyclin L2 in HEK-293; format: binding; conditions: CDK11a/L2, read-out: Inhibition at 10µM (%)
T1 sequence (Q9UQ88 1-783): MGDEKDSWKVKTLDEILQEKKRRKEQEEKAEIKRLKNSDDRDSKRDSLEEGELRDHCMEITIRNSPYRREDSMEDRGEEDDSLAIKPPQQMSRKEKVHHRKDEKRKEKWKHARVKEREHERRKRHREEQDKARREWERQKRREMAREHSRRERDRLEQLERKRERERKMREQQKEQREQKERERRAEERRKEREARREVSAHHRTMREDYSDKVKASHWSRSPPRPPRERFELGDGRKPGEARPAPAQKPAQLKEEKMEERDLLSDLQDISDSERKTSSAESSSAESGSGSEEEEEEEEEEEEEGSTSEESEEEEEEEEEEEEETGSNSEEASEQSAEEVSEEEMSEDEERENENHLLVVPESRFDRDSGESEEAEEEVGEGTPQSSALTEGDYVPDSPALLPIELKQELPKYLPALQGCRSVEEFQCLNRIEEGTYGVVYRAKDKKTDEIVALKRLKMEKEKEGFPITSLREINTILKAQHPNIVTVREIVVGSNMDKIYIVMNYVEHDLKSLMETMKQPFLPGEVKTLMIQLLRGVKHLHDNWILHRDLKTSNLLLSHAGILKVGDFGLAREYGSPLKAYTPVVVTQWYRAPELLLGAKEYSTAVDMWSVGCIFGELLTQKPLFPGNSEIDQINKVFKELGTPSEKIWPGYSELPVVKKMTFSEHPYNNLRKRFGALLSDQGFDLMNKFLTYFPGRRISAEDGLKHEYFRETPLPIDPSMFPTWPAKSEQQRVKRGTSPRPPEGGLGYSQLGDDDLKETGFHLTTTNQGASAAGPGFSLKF

[9] = biological target: CDK8/Cyclin C (Homo sapiens, UniProt P49336); experiment: NanoBRET live-cell target engagement, NanoLuc-CDK8/Cyclin C in HEK-293; format: binding; conditions: CDK8/C, read-out: Inhibition at 10µM (%)
[10] = biological target: CDK5/CDK5R1 (Homo sapiens, UniProt Q00535); experiment: NanoBRET live-cell target engagement, CDK5-NanoLuc/CDK5R1 in HEK-293; format: binding; conditions: CDK5/CDK5R1, read-out: Inhibition at 10µM (%)
[11] = biological target: CDK1/Cyclin E1 (Homo sapiens, UniProt P06493); experiment: NanoBRET live-cell target engagement, CDK1-NanoLuc/Cyclin E1 in HEK-293; format: binding; conditions: CDK1/E1, read-out: Inhibition at 10µM (%)
[12] = biological target: CDK3/Cyclin E1 (Homo sapiens, UniProt Q00526); experiment: NanoBRET live-cell target engagement, CDK3-NanoLuc/Cyclin E1 in HEK-293; format: binding; conditions: CDK3/E1, read-out: Inhibition at 10µM (%)
[13] = biological target: CDK17/Cyclin Y (Homo sapiens, UniProt Q00537); experiment: NanoBRET live-cell target engagement, CDK17-NanoLuc/Cyclin Y in HEK-293; format: binding; conditions: CDK17/Y, read-out: Inhibition at 10µM (%)
[14] = biological target: CDK18/Cyclin Y (Homo sapiens, UniProt Q07002); experiment: NanoBRET live-cell target engagement, CDK18-NanoLuc/Cyclin Y in HEK-293; format: binding; conditions: CDK18/Y, read-out: Inhibition at 10µM (%)
[15] = biological target: CDK4/Cyclin D1 (Homo sapiens, UniProt P11802); experiment: NanoBRET live-cell target engagement, NanoLuc-CDK4/Cyclin D1 in HEK-293; format: binding; conditions: CDK4/D1; for IC50: read-out: IC50; for inhibition at 10 µM: read-out: Inhibition at 10µM (%)
[16] = biological target: CDK16/Cyclin Y (Homo sapiens, UniProt Q00536); experiment: NanoBRET live-cell target engagement, CDK16-NanoLuc/Cyclin Y in HEK-293; format: binding; conditions: CDK16/Y; for IC50: read-out: IC50; for inhibition at 10 µM: read-out: Inhibition at 10µM (%)
[17] = biological target: CDK13/Cyclin K (Homo sapiens, UniProt Q14004); experiment: NanoBRET live-cell target engagement, CDK13-NanoLuc/Cyclin K in HEK-293; format: binding; conditions: CDK13/K, read-out: Inhibition at 10µM (%)
[18] = biological target: CDK19/Cyclin C (Homo sapiens, UniProt Q9BWU1); experiment: NanoBRET live-cell target engagement, NanoLuc-CDK19/Cyclin C in HEK-293; conditions: read-out: Inhibition at 10µM (%), CDK19/C
[19] = biological target: CDK6/Cyclin D1 (Homo sapiens, UniProt Q00534); experiment: NanoBRET live-cell target engagement, NanoLuc-CDK6/Cyclin D1 in HEK-293; format: binding; conditions: CDK6/D1; for IC50: read-out: IC50; for inhibition at 10 µM: read-out: Inhibition at 10µM (%)

Chain of CDK12/Cyclin K (Q9NYV4 1-1481 isoform Q9NYV4-2): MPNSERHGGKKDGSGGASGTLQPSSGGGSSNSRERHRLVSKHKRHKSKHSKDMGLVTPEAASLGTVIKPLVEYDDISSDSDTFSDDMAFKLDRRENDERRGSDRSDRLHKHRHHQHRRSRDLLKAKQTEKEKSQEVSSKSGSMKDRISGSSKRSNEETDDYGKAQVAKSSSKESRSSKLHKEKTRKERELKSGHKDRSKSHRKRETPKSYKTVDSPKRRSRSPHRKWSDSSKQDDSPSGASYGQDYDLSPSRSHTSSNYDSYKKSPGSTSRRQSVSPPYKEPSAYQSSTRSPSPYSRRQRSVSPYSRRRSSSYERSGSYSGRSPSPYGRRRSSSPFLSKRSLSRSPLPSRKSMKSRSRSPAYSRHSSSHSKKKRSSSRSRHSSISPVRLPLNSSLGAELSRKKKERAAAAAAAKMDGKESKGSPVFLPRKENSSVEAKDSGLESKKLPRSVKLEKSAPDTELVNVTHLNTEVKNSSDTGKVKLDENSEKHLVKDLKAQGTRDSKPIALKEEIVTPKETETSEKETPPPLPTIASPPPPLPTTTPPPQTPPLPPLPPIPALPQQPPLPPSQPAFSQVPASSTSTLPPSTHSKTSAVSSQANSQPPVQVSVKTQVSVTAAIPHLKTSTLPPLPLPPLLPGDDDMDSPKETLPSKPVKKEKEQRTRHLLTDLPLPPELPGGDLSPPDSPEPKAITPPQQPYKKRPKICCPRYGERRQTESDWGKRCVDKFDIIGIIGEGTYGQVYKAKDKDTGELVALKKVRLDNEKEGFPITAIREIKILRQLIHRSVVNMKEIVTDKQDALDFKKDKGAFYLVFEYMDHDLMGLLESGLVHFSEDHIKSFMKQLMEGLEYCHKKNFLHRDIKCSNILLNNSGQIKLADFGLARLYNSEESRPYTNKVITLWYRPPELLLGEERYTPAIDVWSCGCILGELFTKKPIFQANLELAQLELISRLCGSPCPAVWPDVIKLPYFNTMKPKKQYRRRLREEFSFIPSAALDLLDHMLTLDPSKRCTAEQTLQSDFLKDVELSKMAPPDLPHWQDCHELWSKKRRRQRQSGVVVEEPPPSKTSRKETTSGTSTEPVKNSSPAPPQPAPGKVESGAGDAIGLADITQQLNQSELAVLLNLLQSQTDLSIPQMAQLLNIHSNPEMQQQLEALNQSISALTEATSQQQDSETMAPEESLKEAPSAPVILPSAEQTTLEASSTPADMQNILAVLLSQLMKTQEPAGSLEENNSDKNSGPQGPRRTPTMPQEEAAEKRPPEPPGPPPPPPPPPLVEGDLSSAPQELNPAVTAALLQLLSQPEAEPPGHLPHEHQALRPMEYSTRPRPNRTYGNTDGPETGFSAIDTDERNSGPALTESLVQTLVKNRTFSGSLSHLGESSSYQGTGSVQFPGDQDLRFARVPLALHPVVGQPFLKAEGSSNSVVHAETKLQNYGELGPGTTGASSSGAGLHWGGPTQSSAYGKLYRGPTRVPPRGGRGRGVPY
Chain of CDK12/Cyclin K (O75909 whole entry partner): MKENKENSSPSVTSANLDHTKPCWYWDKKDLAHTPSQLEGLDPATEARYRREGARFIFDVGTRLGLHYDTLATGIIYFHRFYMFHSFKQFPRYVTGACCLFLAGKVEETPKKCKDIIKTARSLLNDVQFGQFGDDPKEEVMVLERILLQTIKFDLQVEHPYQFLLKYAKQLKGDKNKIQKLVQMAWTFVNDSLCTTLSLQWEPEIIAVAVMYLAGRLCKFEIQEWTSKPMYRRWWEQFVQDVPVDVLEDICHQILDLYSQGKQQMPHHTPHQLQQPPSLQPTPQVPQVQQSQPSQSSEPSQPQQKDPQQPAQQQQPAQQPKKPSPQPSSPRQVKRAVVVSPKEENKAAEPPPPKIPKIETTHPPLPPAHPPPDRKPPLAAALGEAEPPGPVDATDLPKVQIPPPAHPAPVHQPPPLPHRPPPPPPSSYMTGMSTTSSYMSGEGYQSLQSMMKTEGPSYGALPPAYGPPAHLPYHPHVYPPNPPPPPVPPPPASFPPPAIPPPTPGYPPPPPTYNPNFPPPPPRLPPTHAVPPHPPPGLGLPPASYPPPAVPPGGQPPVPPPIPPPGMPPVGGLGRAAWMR
Chain of CDK3/Cyclin E1 (Q00526 whole entry): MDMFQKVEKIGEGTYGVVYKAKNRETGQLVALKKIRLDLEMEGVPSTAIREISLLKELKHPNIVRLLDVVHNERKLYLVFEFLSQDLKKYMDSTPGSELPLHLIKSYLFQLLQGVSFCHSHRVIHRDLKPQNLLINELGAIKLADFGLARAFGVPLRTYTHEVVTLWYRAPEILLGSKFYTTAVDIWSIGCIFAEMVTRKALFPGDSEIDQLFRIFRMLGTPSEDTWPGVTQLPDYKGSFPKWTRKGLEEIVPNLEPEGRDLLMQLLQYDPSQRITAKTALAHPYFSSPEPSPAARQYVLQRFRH
Chain of CDK3/Cyclin E1 (P24864 whole entry partner): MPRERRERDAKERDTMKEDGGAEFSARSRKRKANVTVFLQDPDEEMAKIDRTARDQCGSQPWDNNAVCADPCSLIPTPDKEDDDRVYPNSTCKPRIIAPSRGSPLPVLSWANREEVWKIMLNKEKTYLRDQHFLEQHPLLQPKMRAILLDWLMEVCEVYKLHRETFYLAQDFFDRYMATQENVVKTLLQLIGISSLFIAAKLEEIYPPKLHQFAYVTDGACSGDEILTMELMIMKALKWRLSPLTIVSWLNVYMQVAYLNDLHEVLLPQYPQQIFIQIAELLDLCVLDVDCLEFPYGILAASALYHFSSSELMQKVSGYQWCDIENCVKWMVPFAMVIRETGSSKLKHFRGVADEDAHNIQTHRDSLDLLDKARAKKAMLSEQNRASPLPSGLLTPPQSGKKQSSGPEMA
Chain of CDK10/Cyclin L2 (Q15131 whole entry): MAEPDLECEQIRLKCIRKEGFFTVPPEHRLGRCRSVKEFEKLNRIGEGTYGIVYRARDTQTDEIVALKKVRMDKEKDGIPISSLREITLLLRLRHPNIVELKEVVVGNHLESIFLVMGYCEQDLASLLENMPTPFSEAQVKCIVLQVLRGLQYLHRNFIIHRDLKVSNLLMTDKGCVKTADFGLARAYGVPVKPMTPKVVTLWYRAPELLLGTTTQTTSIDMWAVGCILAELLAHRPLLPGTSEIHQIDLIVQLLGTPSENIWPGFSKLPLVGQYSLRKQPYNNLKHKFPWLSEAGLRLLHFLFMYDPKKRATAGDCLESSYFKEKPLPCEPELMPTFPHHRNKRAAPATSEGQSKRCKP
Chain of CDK18/Cyclin Y (Q07002 whole entry): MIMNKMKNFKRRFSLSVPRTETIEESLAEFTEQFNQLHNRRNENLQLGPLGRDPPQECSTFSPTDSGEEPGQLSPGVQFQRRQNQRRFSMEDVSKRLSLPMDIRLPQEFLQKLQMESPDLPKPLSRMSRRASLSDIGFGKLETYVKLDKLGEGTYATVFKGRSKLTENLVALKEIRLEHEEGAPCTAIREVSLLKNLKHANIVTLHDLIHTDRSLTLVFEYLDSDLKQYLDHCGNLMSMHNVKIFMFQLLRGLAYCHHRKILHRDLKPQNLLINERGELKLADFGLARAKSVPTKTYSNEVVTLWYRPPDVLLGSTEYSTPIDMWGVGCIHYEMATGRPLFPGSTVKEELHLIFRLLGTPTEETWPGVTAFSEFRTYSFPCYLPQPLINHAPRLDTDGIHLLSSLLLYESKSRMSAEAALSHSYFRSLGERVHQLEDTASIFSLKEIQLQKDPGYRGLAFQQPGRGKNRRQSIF
Chain of CDK18/Cyclin Y (Q8ND76 whole entry partner): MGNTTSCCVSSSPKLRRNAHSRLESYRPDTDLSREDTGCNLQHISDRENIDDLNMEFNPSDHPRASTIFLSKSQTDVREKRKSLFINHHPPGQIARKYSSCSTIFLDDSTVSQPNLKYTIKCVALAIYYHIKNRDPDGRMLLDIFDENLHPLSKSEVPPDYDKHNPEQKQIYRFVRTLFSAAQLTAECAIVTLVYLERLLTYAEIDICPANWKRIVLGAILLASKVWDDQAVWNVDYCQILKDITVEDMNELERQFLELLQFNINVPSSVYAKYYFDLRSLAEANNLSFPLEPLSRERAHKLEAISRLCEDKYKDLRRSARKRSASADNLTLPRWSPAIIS
Chain of CDK19/Cyclin C (Q9BWU1 whole entry): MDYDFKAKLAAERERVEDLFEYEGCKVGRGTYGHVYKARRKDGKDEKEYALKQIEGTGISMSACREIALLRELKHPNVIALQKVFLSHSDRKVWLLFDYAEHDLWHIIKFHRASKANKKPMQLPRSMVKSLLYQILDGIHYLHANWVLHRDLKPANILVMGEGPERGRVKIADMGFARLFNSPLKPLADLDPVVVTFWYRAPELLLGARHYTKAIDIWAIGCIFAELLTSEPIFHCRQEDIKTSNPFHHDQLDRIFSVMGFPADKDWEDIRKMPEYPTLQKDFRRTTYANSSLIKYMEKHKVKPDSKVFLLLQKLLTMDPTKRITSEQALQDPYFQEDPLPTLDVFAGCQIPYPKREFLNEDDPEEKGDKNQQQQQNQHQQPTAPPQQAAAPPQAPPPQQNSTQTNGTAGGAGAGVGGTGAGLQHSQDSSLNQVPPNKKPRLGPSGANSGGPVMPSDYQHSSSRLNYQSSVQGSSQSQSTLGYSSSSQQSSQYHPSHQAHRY
Chain of CDK19/Cyclin C (P24863 whole entry partner): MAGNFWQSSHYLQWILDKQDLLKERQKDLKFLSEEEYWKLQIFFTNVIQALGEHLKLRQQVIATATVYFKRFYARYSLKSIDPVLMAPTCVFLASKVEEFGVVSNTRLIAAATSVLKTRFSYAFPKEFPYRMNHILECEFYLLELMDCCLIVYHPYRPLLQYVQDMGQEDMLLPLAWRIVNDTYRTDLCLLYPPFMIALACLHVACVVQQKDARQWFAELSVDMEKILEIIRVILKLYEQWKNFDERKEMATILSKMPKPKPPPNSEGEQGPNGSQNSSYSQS

## N#CCNC(=O)c1ccc(-c2ccnc(Nc3ccc(N4CCOCC4)cc3)n2)cc1 [Momelotinib]
[1]; average
  inhibition at 10 µM: 17.7%
[1]; experiment 1
  inhibition at 10 µM: 12.1%
[1]; experiment 2
  inhibition at 10 µM: 23.4%
[2]; average
  inhibition at 10 µM: -8.8%
[2]; experiment 1
  inhibition at 10 µM: 5.9%
[2]; experiment 2
  inhibition at 10 µM: -23.5%
[3]; average
  inhibition at 10 µM: 52.5%
[3]; experiment 1
  inhibition at 10 µM: 32.8%
[3]; experiment 2
  inhibition at 10 µM: 72.2%
[4]; average
  inhibition at 10 µM: 8.1%
[4]; experiment 1
  inhibition at 10 µM: 12.2%
[4]; experiment 2
  inhibition at 10 µM: 4%
[5]; average
  inhibition at 10 µM: 16.4%
[5]; experiment 1
  inhibition at 10 µM: 15.4%
[5]; experiment 2
  inhibition at 10 µM: 17.3%
[6]; average
  inhibition at 10 µM: 29.7%
[6]; experiment 1
  inhibition at 10 µM: 29.8%
[6]; experiment 2
  inhibition at 10 µM: 29.7%
[7]; experiment 1
  inhibition at 10 µM: 10.6%
[7]; experiment 2
  inhibition at 10 µM: -4.4%
[8]; average
  inhibition at 10 µM: 26.4%
[8]; experiment 1
  inhibition at 10 µM: 31.7%
[8]; experiment 2
  inhibition at 10 µM: 21.1%
[9]; average
  inhibition at 10 µM: 2.5%
[9]; experiment 1
  inhibition at 10 µM: 15.9%
[9]; experiment 2
  inhibition at 10 µM: -10.8%
[10]; experiment 1
  inhibition at 10 µM: 7.6%
[10]; experiment 2
  inhibition at 10 µM: 10%
[11]; average
  inhibition at 10 µM: 20%
[11]; experiment 1
  inhibition at 10 µM: 32.3%
[11]; experiment 2
  inhibition at 10 µM: 7.8%
[12]; average
  inhibition at 10 µM: 28.6%
[12]; experiment 1
  inhibition at 10 µM: 27.5%
[12]; experiment 2
  inhibition at 10 µM: 29.8%
[13]; average
  inhibition at 10 µM: 43.1%
[13]; experiment 1
  inhibition at 10 µM: 26.9%
[13]; experiment 2
  inhibition at 10 µM: 59.3%
[14]; average
  inhibition at 10 µM: 18.4%
[14]; experiment 1
  inhibition at 10 µM: 14.9%
[14]; experiment 2
  inhibition at 10 µM: 21.8%
[15]; average (± SEM where n=3)
  IC50: 0.65 µM
[15]; average
  inhibition at 10 µM: 45.1%
[15]; experiment 1
  IC50: 0.561 µM
  inhibition at 10 µM: 53.4%
[15]; experiment 2
  IC50: 0.746 µM
  inhibition at 10 µM: 36.9%
[16]; average (± SEM where n=3)
  IC50: 0.45 µM
[16]; experiment 1
  IC50: 0.177 µM
  inhibition at 10 µM: 31.8%
[16]; experiment 2
  IC50: 0.73 µM
  inhibition at 10 µM: 64.3%
[17]; average
  inhibition at 10 µM: 3.2%
[17]; experiment 1
  inhibition at 10 µM: 4.9%
[17]; experiment 2
  inhibition at 10 µM: 1.4%
[18]; average
  inhibition at 10 µM: 6.1%
[18]; experiment 1
  inhibition at 10 µM: 10.6%
[18]; experiment 2
  inhibition at 10 µM: 1.6%
[19]; average (± SEM where n=3)
  IC50: 0.32 µM
[19]; average
  inhibition at 10 µM: 50.9%
[19]; experiment 1
  IC50: 0.318 µM
  inhibition at 10 µM: 50.7%
[19]; experiment 2
  IC50: 0.314 µM
  inhibition at 10 µM: 51.1%
